The values that follow come from patent publication US20230279020A9, “CARM1 INHIBITORS AND USES THEREOF” (Epizyme, Inc., priority 2013, published 2023).

For the test, the target named is Human CARM1 (PRMT4) (Homo sapiens (Human), UniProt Q86X55). The test can be described thus: CARM1 enzyme assay on peptide substrate (3H-SAM Flashplate). Particulars: Biochemical potencies, classification codes; read-out: Biochem IC50.
Chain of Human CARM1 (PRMT4) (Q86X55 other isoform, or with tags, fused parts or gaps isoform Q86X55-1): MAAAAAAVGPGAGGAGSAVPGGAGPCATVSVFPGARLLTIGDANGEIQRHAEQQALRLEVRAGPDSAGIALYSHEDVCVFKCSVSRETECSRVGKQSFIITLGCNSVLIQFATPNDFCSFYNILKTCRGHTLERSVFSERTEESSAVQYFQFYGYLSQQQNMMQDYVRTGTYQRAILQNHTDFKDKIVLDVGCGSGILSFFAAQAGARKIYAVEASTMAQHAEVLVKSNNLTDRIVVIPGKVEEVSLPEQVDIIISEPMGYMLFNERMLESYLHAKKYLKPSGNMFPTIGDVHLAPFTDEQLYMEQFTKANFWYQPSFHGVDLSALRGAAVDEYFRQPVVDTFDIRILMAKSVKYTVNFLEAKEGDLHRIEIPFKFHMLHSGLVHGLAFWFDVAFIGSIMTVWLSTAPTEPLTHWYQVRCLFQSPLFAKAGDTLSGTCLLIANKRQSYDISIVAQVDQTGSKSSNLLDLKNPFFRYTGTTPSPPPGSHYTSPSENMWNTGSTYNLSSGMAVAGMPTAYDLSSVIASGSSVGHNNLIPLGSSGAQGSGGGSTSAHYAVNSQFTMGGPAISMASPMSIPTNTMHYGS
Take `CNC[C@@H](O)COc1ccc(Cl)c(-c2nc(-c3c(C)noc3C)cc(N3Cc4nccnc4C3)n2)c1` [Example 251-3]: the IC50 (usually the concentration that inhibits the measured activity by half) was under 100 nM.

As for `CNCC(O)COc1cccc(-c2nc(-c3c(C)noc3C)c(C)c(N3CCC4(CC3)CN(C(=O)N(C)C)C4)n2)c1` (centres unmarked) [Example 252-1a], the IC50 was under 100 nM.

For the compound `CNC[C@@H](O)COc1ccc(Cl)c(-c2nc(-c3c(C)noc3C)c(C)c(N3Cc4nn(C)c(C)c4C3)n2)c1` [Example 252-3], the IC50 was under 100 nM.

With `CCS(=O)(=O)N1CC2(CCN(c3nc(-c4cccc(OCC(O)CNC)c4)nc(-c4c(C)noc4C)c3C)CC2)C1` (centres unmarked) [Example 253-1a], the IC50 was under 100 nM.

Regarding `CCO[C@@H]1CCC[C@@H]1Nc1nc(-c2cc(OC[C@H](O)CNC)ccc2Cl)nc(-c2c(C)noc2C)c1C` [Example 253-3], the IC50 is under 100 nM.

As for `CNCC(O)COc1cccc(-c2nc(N[C@H]3C[C@H](O)C3)c(C)c(-c3c(C)noc3C)n2)c1` (some centres unmarked) [Example 254-1a], the IC50 is under 100 nM.

As for `CCO[C@@H]1CCC[C@@H]1N(CC)c1nc(-c2cc(OC[C@H](O)CNC)ccc2Cl)nc(-c2c(C)noc2C)c1C` [Example 254-3], the IC50 was under 100 nM.

For `CNCC(O)COc1cccc(-c2nc(N[C@H]3C[C@@](C)(O)C3)c(C)c(-c3c(C)noc3C)n2)c1` (some centres unmarked) [Example 255-1a], the 50% inhibitory concentration (IC50) was under 100 nM.

For `CCO[C@H]1CCC[C@H]1N(CC)c1nc(-c2cc(OC[C@H](O)CNC)ccc2Cl)nc(-c2c(C)noc2C)c1C` [Example 255-3], the IC50 is under 100 nM.

Regarding `CNCC(O)COc1cccc(-c2nc(N[C@H]3C[C@@H](O)C3)c(C)c(-c3c(C)noc3C)n2)c1` (some centres unmarked) [Example 256-1a], the IC50 is under 100 nM.

For `CNCC(O)COc1cccc(-c2nc(NC3CCOCC3)c(C)c(-c3c(CO)noc3C)n2)c1` (centres unmarked) [Example 256-3], the IC50 is under 100 nM.

For `CNC[C@@H](O)COc1ccc(Cl)c(-c2nc(N[C@@H]3CCO[C@@H](C)C3)c(C)c(-c3c(C)noc3C)n2)c1` [Example 257-3], the IC50 was under 100 nM.

For the compound `CNCC(O)COc1cccc(-c2nc(NC[C@H]3COCCN3C(=O)N(C)C)c(C)c(-c3c(C)noc3C)n2)c1` (some centres unmarked) [Example 258-1a], the IC50 is under 100 nM.

In the case of `CNC[C@@H](O)COc1ccc(Cl)c(-c2nc(NC3CCN(C)CC3(F)F)c(C)c(-c3c(C)noc3C)n2)c1` (some centres unmarked) [Example 258-3], the IC50 was under 100 nM.

Turning to `CNCC(O)COc1cccc(-c2nc(OCC3CCN(C(=O)OCc4ccccc4)CC3)c(C)c(-c3c(C)noc3C)n2)c1` (centres unmarked) [Example 259-1a], the 50% inhibitory concentration (IC50) is under 100 nM.

As for `CNC[C@@H](O)COc1ccc(Cl)c(-c2nc(-c3c(C)noc3C)c(C)c(N3Cc4cnc(C5CC5)nc4C3)n2)c1` [Example 259-3], the half-inhibitory concentration (IC50) is under 100 nM.

Regarding `CNCC(O)COc1cccc(-c2nc(N[C@@H]3CCN(C4CC4)C[C@@H]3F)c(C)c(-c3c(C)noc3C)n2)c1` (some centres unmarked) [Example 260-1a], the IC50 is under 100 nM.

Take `CNC[C@@H](O)COc1ccc(F)c(-c2nc(-c3c(C)noc3C)c(C)c(N3Cc4cncnc4C3)n2)c1` [Example 260-3]: the IC50 is under 100 nM.

Turning to `CNCC(O)COc1cccc(-c2nc(N[C@@H]3CCN(C4CC4)C[C@H]3F)c(C)c(-c3c(C)noc3C)n2)c1` (some centres unmarked) [Example 261-1a], the IC50 was under 100 nM.

For `CNC[C@@H](O)COc1ccc(Cl)c(-c2nc(-c3c(C)noc3C)c(F)c(N3CC4(CCOCC4)C3)n2)c1` [Example 261-3], the IC50 is under 100 nM.

On to `CNCC(O)COc1cccc(-c2nc(NCC3CCN(C4COC4)CC3)c(C)c(-c3c(C)noc3C)n2)c1` (centres unmarked) [Example 262-1a], for which the IC50 is under 100 nM.

Consider `CNCC(O)COc1cccc(-c2nc(NC3CCN(C4COC4)CC3)c(C)c(-c3c(C)noc3C)n2)c1` (centres unmarked) [Example 263-1a], for which the concentration for half-maximal inhibition (IC50) is under 100 nM.

As for `CNC[C@@H](O)COc1ccc(Cl)c(-c2nc(-c3c(C)noc3C)c(C)c(N3Cc4cnc(C(F)(F)F)nc4C3)n2)c1` [Example 263-3], the 50% inhibitory concentration (IC50) was under 100 nM.

Take `CNCC(O)COc1cccc(-c2nc(NC3CN(C(=O)C4CC4)C3)c(C)c(-c3c(C)noc3C)n2)c1` (centres unmarked) [Example 264-1a]: the IC50 was under 100 nM.

For `CNC[C@@H](O)COc1ccc(Cl)c(-c2nc(-c3c(C)noc3C)c(C)c(N3Cc4cnc(C(C)C)nc4C3)n2)c1` [Example 264-3], the 50% inhibitory concentration (IC50) is under 100 nM.

`CNCC(O)COc1cccc(-c2nc(N[C@@H]3C[C@H]4CC[C@@H](C3)N4C(=O)OC)c(C)c(-c3c(C)noc3C)n2)c1` (some centres unmarked) [Example 265-1a]: the IC50 was under 100 nM.

As to `CNC[C@@H](O)COc1ccc(Cl)c(-c2nc(-c3c(C)noc3C)c(C)c(N3Cc4cnn(CC(F)(F)F)c4C3)n2)c1` [Example 265-3], the IC50 was under 100 nM.

Take `CNCC(O)COc1cccc(-c2nc(N[C@H]3C[C@H]4CC[C@@H](C3)N4C(=O)OC)c(C)c(-c3c(C)noc3C)n2)c1` (some centres unmarked) [Example 266-1a]: the half-maximal inhibitory concentration (IC50) was under 100 nM.

For `CNC[C@@H](O)COc1ccc(F)c(-c2nc(-c3c(C)noc3C)c(C)c(N3Cc4cccc(F)c4C3)n2)c1` [Example 266-3], the IC50 was under 100 nM.

Regarding `CNCC(O)COc1cccc(-c2nc(N[C@H]3COC(=O)C3)c(C)c(-c3c(C)noc3C)n2)c1` (some centres unmarked) [Example 267-1a], the IC50 was under 100 nM.

For `CNC[C@@H](O)COc1ccc(Cl)c(-c2nc(-c3c(C)noc3C)c(C)c(N3Cc4cccc(F)c4C3)n2)c1` [Example 267-3], the IC50 was under 100 nM.

For `CNCC(O)COc1cccc(-c2nc(N[C@@H]3COC(=O)C3)c(C)c(-c3c(C)noc3C)n2)c1` (some centres unmarked) [Example 268-1a], the IC50 is under 100 nM.

As to `CNC[C@@H](O)COc1ccc(Cl)c(-c2nc(-c3c(C)noc3C)c(C)c(C3CCOCC3)n2)c1` [Example 268-3], the concentration for half-maximal inhibition (IC50) is under 100 nM.

Consider `CNCC(O)COc1cccc(-c2nc(NC3CCOCC3C)c(C)c(-c3c(C)noc3C)n2)c1` (centres unmarked) [Example 269-1a], for which the half-maximal inhibitory concentration (IC50) is under 100 nM.

Take `CNC[C@@H](O)COc1ccc(F)c(-c2nc(-c3c(C)noc3C)c(C)c(N3CC4(CCCCO4)C3)n2)c1` [Example 269-3]: the IC50 is under 100 nM.

Take `CNCC(O)COc1ccc(Cl)c(-c2nc(NC3CCN(C(=O)OC)CC3)c(C)c(-c3c(C)noc3C)n2)c1` (centres unmarked) [Example 270-1a]: the IC50 was under 100 nM.

Regarding `CNC[C@@H](O)COc1ccc(Cl)c(-c2nc(-c3c(C)noc3C)c(C)c(N3Cc4cnn(C5CC5)c4C3)n2)c1` [Example 270-3], the IC50 was under 100 nM.

For the compound `CNCC(O)COc1cccc(-c2nc(N[C@@H]3CCOC[C@@H]3F)c(C)c(-c3c(C)noc3C)n2)c1` (some centres unmarked) [Example 271-1a], the IC50 is under 100 nM.

As for `CNC[C@H](O)COc1ccc(Cl)c(-c2nc(-c3c(C)noc3C)c(C)c(N3Cc4cn(C(C)C)nc4C3)n2)c1` [Example 272-1a], the IC50 was under 100 nM.

In the case of `CNC[C@@H](O)COc1ccc(Cl)c(-c2nc(-c3c(C)noc3C)c(C)c(N3Cc4cn(C(C)C)nc4C3)n2)c1` [Example 272-3], the 50% inhibitory concentration (IC50) was under 100 nM.

Consider `CCS(=O)(=O)N1CC(Nc2nc(-c3cccc(OCC(O)CNC)c3)nc(-c3c(C)noc3C)c2C)C1` (centres unmarked) [Example 273-1a], for which the IC50 is under 100 nM.

In the case of `CNCC(O)COc1ccc(Cl)c(-c2nc(NC3CCOCC3)c(C)c(-c3c(CO)noc3C)n2)c1` (centres unmarked) [Example 273-3], the IC50 is under 100 nM.

For the compound `CNCC(O)COc1cccc(-c2nc(NC[C@H]3COCCN3CC(F)F)c(C)c(-c3c(C)noc3C)n2)c1` (some centres unmarked) [Example 274-1a], the IC50 was under 100 nM.

Consider `CNC[C@@H](O)COc1ccc(F)c(-c2nc(-c3c(C)noc3C)cc(N3Cc4nccnc4C3)n2)c1` [Example 274-3], for which the IC50 was under 100 nM.
